Assay results reported in patent US20240189264A1 (priority 2024, published 2024).

## CC(C)NCC(O)COc1ccc(CC(N)=O)cc1 (centres unmarked) [Atenolol]
Patients taking atenolol single dose
  C-reactive protein (CRP) level (in words): significantly high
Single dose of 100 mg atenolol, oral administration
  response of hypertensive patients to atenolol: mostly respond
